# ChEMBL document CHEMBL3351377, “Scaffold hopping towards potent and selective JAK3 inhibitors: discovery of novel C-5 substituted pyrrolopyrazines” (Bioorg Med Chem Lett, 2014)
# Target: Tyrosine-protein kinase JAK1 (Homo sapiens, UniProt P23458)
row,IC50 [nM],Compound
1,287,CC[C@H](CO)Nc1ncc(-c2cnc3[nH]ccc3n2)c(N[C@H]2CCCN(S(C)(=O)=O)C2)n1
2,189,CN1CCN(c2ncc(-c3cnc4[nH]ccc4n3)c(N[C@H]3CCCN(S(C)(=O)=O)C3)n2)CC1
